Active and inactive are the calls of the source.
Tests used:
[1] = tested on: Bacillus subtilis; assay: Antibacterial activity against Bacillus subtilis; assay type: functional, organism-based
[2] = tested on: Candida albicans; assay: Antifungal activity against Candida albicans; assay type: functional, organism-based
[3] = tested on: Cladosporium cucumerinum; assay: Antifungal activity against Cladosporium cucumerinum; assay type: functional, organism-based
[4] = target: Acetylcholinesterase (Homo sapiens) (UniProt P22303); assay: Inhibition of acetylcholinesterase
Acetylcholinesterase (Homo sapiens), sequence (P22303 whole entry): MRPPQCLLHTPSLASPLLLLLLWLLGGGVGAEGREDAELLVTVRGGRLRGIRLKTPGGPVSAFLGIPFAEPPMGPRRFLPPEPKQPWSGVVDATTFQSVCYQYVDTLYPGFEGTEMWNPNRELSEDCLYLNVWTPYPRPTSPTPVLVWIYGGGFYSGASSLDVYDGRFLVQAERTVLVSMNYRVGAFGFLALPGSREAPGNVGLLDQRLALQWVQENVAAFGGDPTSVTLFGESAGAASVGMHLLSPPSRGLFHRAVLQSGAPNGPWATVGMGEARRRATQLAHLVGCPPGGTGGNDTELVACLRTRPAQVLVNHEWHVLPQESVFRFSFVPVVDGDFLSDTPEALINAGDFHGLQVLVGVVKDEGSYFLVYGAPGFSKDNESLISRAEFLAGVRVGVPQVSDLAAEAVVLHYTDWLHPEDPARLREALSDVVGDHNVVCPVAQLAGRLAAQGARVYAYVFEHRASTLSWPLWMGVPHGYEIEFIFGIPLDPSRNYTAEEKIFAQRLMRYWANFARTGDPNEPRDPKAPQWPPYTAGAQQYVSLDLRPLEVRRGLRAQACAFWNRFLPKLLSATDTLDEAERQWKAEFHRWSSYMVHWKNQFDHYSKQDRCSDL

[5] = Antioxidant activity assessed as DPPH scavenging activity; assay type: functional

Measured: Activity

COc1cc(/C=C2\C(=O)N(CCc3ccc(O)cc3)[C@H](c3ccc(O)c(OC)c3)[C@H]2C(=O)NCCc2ccc(O)cc2)ccc1O
inactive: all assays above

COc1cc(/C=C2\C(=O)N(CCc3ccc(OC(C)=O)cc3)[C@H](c3ccc(OC(C)=O)c(OC)c3)[C@H]2C(=O)NCCc2ccc(OC(C)=O)cc2)ccc1OC(C)=O
inactive: all assays above

Source: ChEMBL document CHEMBL1147260, “Heliotropamide, a novel oxopyrrolidine-3-carboxamide from Heliotropium ovalifolium” (J Nat Prod, 2003)
